Experimental data published in patent US7022855B2, “Halogen-substituted quinoline derivatives and ectoparasite control agent” (Meiji Seika Kaisha, Ltd., priority 2001, dated 2006).

Assays:
Assay type in all cases: in vivo
Ctenocephalides felis = assay: Insecticidal effect against Ctenocephalides felis (dry film in glass tube); conditions: non-sucking adult fleas, 24 hr, 25° C., relative humidity 90%
Method: Test compound solutions (0.5 ml) prepared by dissolving a test compound in acetone and diluting the solutions with acetone to designated concentrations were placed respectively in glass tubes (inner diameter 2.6 cm, height 12 cm), and acetone was evaporated at room temperature to form a dry film of the test compound at the bottom of each glass tube. Non-sucking adult fleas (10 heads) of Ctenocephalides felis were released in the glass tubes. The glass tubes were then lidded. Whether the fleas were dead or survived was judged 24 hr after the initiation of rearing. The death rate (%) was determined from the number of dead fleas. Rearing was carried out at a temperature of 25° C. and a relative humidity of 90% under fully darkened conditions. The test was repeated three times.

Ornithonyssus sylviarum = assay: Miticidal effect against Ornithonyssus sylviarum (treated Pasteur pipette, contact test); conditions: 50 ppm in acetone, sucking adult mites, 24 hr after treatment, 25° C., read-out: Death rate, %
Excerpt: (§1) The tip of a Pasteur pipette was sealed with Parafilm, and a sample compound diluted with acetone to 50 ppm was poured into the pipette from its top. The Parafilm in the tip of the pipette was removed one min after the pouring to discharge the test solution, and the pipette was air dried. Thereafter, an absorbent cotton was inserted into the upper end of the pipette, and 10 sucking adult mites of Ornithonyssus sylviarum were released in the pipette. The tip of the pipette was sealed with Hematoseal, and the pipette was then placed in a desiccator containing a saturated ammonium sulfate solution in its bottom and was stored under fully darkened conditions at 25° C. The mites were observed under a stereomicroscope 24 hr after the treatment to judge whether the mites were dead or survived, followed by determination of the death rate (%).

Dermanyssus gallinae = assay: Miticidal effect against Dermanyssus gallinae (treated Pasteur pipette, contact test); conditions: 50 ppm in acetone, sucking adult mites, 24 hr after treatment, 25° C.; for pest or weed control at 50 ppm: Dermanyssus gallinae, read-out: Death rate, %
Excerpt: as §1, with “mites of Dermanyssus gallinae were released” for “mites of Ornithonyssus sylviarum were released”, “death rate of mites (%).” for “death rate (%).”

[1] = tested on: Haemaphysalis longicornis; assay: Tickcidal effect against Haemaphysalis longicornis (dry film on glass Schale); conditions: larva ticks, 24 hr, 25° C., relative humidity 100%; for pest or weed control at 10 ppm: Haemaphysalis longicornis, read-out: Death rate, %; for Death rate, %: 10 ppm
Method: A test compound solution (1.0 ml) prepared by dissolving a test compound in acetone and diluting the solution with acetone to 10 ppm was dropped on a glass Schale having a diameter of 9 cm. Acetone was evaporated at room temperature to form a dry film of the test compound at the bottom of the Schale. Larva ticks of Haemaphysalis longicornis (40 to 100 head) were released in the Petri dish, and the Schale was then lidded and was hermetically sealed by covering with a polyethylene sheet. Rearing was carried out at a temperature of 25° C. and a relative humidity of 100% under fully darkened conditions. The number of ticks, which have fallen on their side, was counted 24 hr after the initiation of rearing. The death rate (%) was determined from the number of dead ticks. The test was repeated twice.

With `CCc1nc2cc(F)c(F)cc2c(OC(=O)C2CC2)c1C` [Compound 1, 2-ethyl-3-methyl-4-cyclopropanecarbonyloxy-6,7-difluoroquinoline] the “Death rate, %” value (Ctenocephalides felis; 20 ppm) was 100% and the pest or weed control at 50 ppm (Ornithonyssus sylviarum) was 80%.
In the case of `COC(=O)Oc1c(C)c(C)nc2ccc(Cl)c(Cl)c12` [Compound 67, 2,3-dimethyl-4-methoxycarbonyloxy-5,6-dichloroquinoline], the pest or weed control at 50 ppm (Dermanyssus gallinae) is reported as 100%.
`CCOC(=O)Oc1c(C)c(CC)nc2ccc(F)c(F)c12` [Compound 33, 2-ethyl-3-methyl-4-ethoxycarbonyl-oxy-5,6-difluoroquinoline] showed a pest or weed control at 50 ppm (Dermanyssus gallinae) of 100%.
`C#CCOC(=O)Oc1c(C)c(CC)nc2ccc(F)c(F)c12` [Compound 41, 2-ethyl-3-methyl-4-propargyloxycarbonyloxy-5,6-difluoroquinoline] was tested, and the pest or weed control at 50 ppm (Dermanyssus gallinae) was 100% and the pest or weed control at 10 ppm [1] was 100%.
`CCc1nc2ccc(F)c(F)c2c(OC(=O)SC)c1C` [Compound 39, 2-ethyl-3-methyl-4-methanethiolcarbonyloxy-5,6-difluoroquinoline] was tested, and the “Death rate, %” value (Ctenocephalides felis; 4 ppm) was 80%, the “Death rate, %” value (Dermanyssus gallinae) was 100% and the “Death rate, %” value [1] was 100%.
Work on `Cc1nc2ccc(F)c(F)c2c(OC(=O)/C=C\Cl)c1C` [Compound 54, 2,3-dimethyl-4-(3-cischloroacryloyloxy)-5,6-difluoroquinoline] yielded a pest or weed control at 50 ppm (Dermanyssus gallinae) of 100%.
In the case of `CCCCOC(=O)Oc1c(C)c(CC)nc2ccc(F)c(F)c12` [Compound 13, 2-ethyl-3-methyl-4-butoxycarbonyloxy-5,6-difluoroquinoline], the pest or weed control at 50 ppm (Dermanyssus gallinae) is reported as 85%.
Work on `CCc1nc2ccc(F)c(F)c2c(OC(=O)C(C)C)c1C` [Compound 48, 2-ethyl-3-methyl-4-isobutyryloxy-5,6-difluoroquinoline] yielded a pest or weed control at 50 ppm (Dermanyssus gallinae) of 100%.
With `C#CCCOC(=O)Oc1c(C)c(C)nc2ccc(F)c(F)c12` [Compound 52, 2,3-dimethyl-4-(3-butynyl)oxycarbonyloxy-5,6-difluoroquinoline] the “Death rate, %” value (Ctenocephalides felis; 4 ppm) was 70%, the pest or weed control at 50 ppm (Dermanyssus gallinae) was 100% and the pest or weed control at 10 ppm [1] was 100%.
For `COC(=O)Oc1c(C)c(C)nc2ccc(F)c(C(F)(F)F)c12` [Compound 62, 2,3-dimethyl-4-methoxycarbonyloxy-5-trifluoromethyl-6-fluoroquinoline], the pest or weed control at 50 ppm (Dermanyssus gallinae) was 100%.
With `CCc1nc2ccc(F)c(F)c2c(OC(C)=O)c1C` [Compound 12, 2-ethyl-3-methyl-4-acetyloxy-5,6-difluoroquinoline] the pest or weed control at 50 ppm (Dermanyssus gallinae) was 95% and the pest or weed control at 50 ppm (Ornithonyssus sylviarum) was 100%.
For `CC(=O)Oc1c(C)c(C)nc2ccc(F)c(F)c12` [Compound 44, 2,3-dimethyl-4-acetoxy-5,6-difluoro-quinoline], the pest or weed control at 50 ppm (Dermanyssus gallinae) was 100% and the pest or weed control at 10 ppm [1] was 100%.
`C#CCCOC(=O)Oc1c(C)c(CC)nc2ccc(F)c(F)c12` [Compound 56, 2-ethyl-3-methyl-4-(3-butynyl)oxycarbonyloxy-5,6-difluoroquinoline] gave a pest or weed control at 50 ppm (Dermanyssus gallinae) of 95% and a pest or weed control at 10 ppm [1] of 100%.
In the case of `CCc1nc2ccc(F)c(Cl)c2c(OC(C)=O)c1C` [Compound 19, 2-ethyl-3-methyl-4-acetyloxy-5-chloro-6-fluoroquinoline], the “Death rate, %” value (Ctenocephalides felis; 4 ppm) is reported as 100% and the pest or weed control at 50 ppm (Ornithonyssus sylviarum) is reported as 100%.
`CCc1nc2ccc(F)c(F)c2c(OC(=O)OC)c1C` [Compound 24, 2-ethyl-3-methyl-4-methoxycarbonyloxy-5,6-difluoroquinoline] was tested, and the “Death rate, %” value (Ctenocephalides felis; 4 ppm) was 84%, the “Death rate, %” value (Ctenocephalides felis; 20 ppm) was 100% and the pest or weed control at 50 ppm (Dermanyssus gallinae) was 100%. For the same molecule, the pest or weed control at 10 ppm [1] was 100% and the pest or weed control at 50 ppm (Ornithonyssus sylviarum) was 100%.
`CCCSC(=O)Oc1c(C)c(CC)nc2ccc(F)c(F)c12` [Compound 55, 2-ethyl-3-methyl-4-propanethiolcarbonyloxy-5,6-difluoroquinoline] was tested, and the “Death rate, %” value (Dermanyssus gallinae) was 100%.
For “2,3-dimethyl-4-propargloxycarbonyloxy-5,6-difluoroquinoline [Compound 50]”, the “Death rate, %” value (Dermanyssus gallinae) was 95% and the “Death rate, %” value [1] was 100%.
`C=CCOC(=O)Oc1c(C)c(C)nc2ccc(F)c(F)c12` [Compound 57, 2,3-dimethyl-4-allyloxycarbonyloxy-5,6-difluoroquinoline] was tested, and the pest or weed control at 50 ppm (Dermanyssus gallinae) was 100%.
In the case of `C=COC(=O)Oc1c(C)c(C)nc2ccc(F)c(F)c12` [Compound 51, 2,3-dimethyl-4-vinyloxycarbonyloxy-5,6-difluoroquinoline], the pest or weed control at 50 ppm (Dermanyssus gallinae) is reported as 90%.
`CCc1nc2ccc(F)c(Cl)c2c(OC(=O)C2CC2)c1C` [Compound 21, 2-ethyl-3-methyl-4-cyclopropanecarbonyloxy-5-chloro-6-fluoroquinoline] was tested, and the pest or weed control at 50 ppm (Ornithonyssus sylviarum) was 100%.
For `CSC(=O)Oc1c(C)c(C)nc2ccc(F)c(F)c12` [Compound 46, 2,3-dimethyl-4-methanethiolcarbonyloxy-5,6-difluoro-quinoline], the “Death rate, %” value (Dermanyssus gallinae) was 100% and the “Death rate, %” value [1] was 100%.
With `CCC(=O)Oc1c(C)c(CC)nc2ccc(F)c(F)c12` [Compound 30, 2-ethyl-3-methyl-4-propionyloxy-5,6-difluoroqinoline] the “Death rate, %” value (Dermanyssus gallinae) was 100% and the “Death rate, %” value [1] was 100%.
For `CCc1nc2ccc(F)c(F)c2c(OC(=O)C2CC2)c1C` [Compound 2, 2-ethyl-3-methyl-4-cyclopropanecarbonyloxy-5,6-difluoroquinoline], the “Death rate, %” value (Ctenocephalides felis; 4 ppm) was 97%, the “Death rate, %” value (Ctenocephalides felis; 20 ppm) was 100% and the pest or weed control at 50 ppm (Dermanyssus gallinae) was 100%. For the same molecule, the pest or weed control at 10 ppm [1] was 100% and the pest or weed control at 50 ppm (Ornithonyssus sylviarum) was 100%.
`C#CCCCC(=O)Oc1c(C)c(C)nc2ccc(F)c(F)c12` [Compound 58, 2,3-dimethyl-4-(5-hexynoyloxy)-5,6-difluoroquinoline] gave a pest or weed control at 50 ppm (Dermanyssus gallinae) of 80%.
With `CCOC(=O)Oc1c(C)c(C)nc2ccc(F)c(F)c12` [Compound 45, 2,3-dimethyl-4-ethyloxycarbonyloxy-5,6-difluoroquinoline] the pest or weed control at 50 ppm (Dermanyssus gallinae) was 100%.
`COC(=O)Oc1c(C)c(C)nc2ccc(F)c(F)c12` [Compound 25, 2,3-dimethyl-4-methoxycarbonyl-oxy-5,6-difluoroquinoline] showed a pest or weed control at 50 ppm (Dermanyssus gallinae) of 100%, a pest or weed control at 10 ppm [1] of 100% and a pest or weed control at 50 ppm (Ornithonyssus sylviarum) of 100%.
`Cc1nc2ccc(F)c(F)c2c(OC(=O)C2CC2)c1C` [Compound 16, 2,3-dimethyl-4-cyclopropanecarbonyloxy-5,6-difluoroquinoline] was tested, and the pest or weed control at 50 ppm (Dermanyssus gallinae) was 100%, the pest or weed control at 10 ppm [1] was 100% and the pest or weed control at 50 ppm (Ornithonyssus sylviarum) was 80%.
In the case of `CCc1nc2ccc(F)c(F)c2c(OC(=O)OC(C)C)c1C` [Compound 14, 2-ethyl-3-methyl-4-isopropoxycarbonyloxy-5,6-difluoroquinoline], the pest or weed control at 50 ppm (Ornithonyssus sylviarum) is reported as 100%.
`Cc1nc2ccc(F)c(F)c2c(OC(=O)/C=C/Cl)c1C` [Compound 53, 2,3-dimethyl-4-(3-transchloroacryloyloxy)-5,6-difluoroquinoline] was tested, and the pest or weed control at 50 ppm (Dermanyssus gallinae) was 100%.
With `CC(=O)Oc1c(C)c(C)nc2ccc(Cl)c(Cl)c12` [Compound 65, 2,3-dimethyl-4-acetoxy-5,6-dichloro-quinoline] the pest or weed control at 50 ppm (Dermanyssus gallinae) was 80%.
